Test system: male ICR-mice
Experiment: Potentiation of sodium pentobarbital sleeping time test
Type: in vivo
Details: intraperitoneal, 1 mg/kg, 38 mg/kg sodium pentobarbital 30 min later
Experimental: Effects of N^6-substituted adenosine derivatives and/or N^6-substituted adenine derivatives on sodium pentobarbital-induced sleeping time in mice.
Name of Experiment: Potentiation of sodium pentobarbital sleeping time test.
Method of Experiment: Groups of 8-10 male ICR-mice with an average weight of 18-22 g were used. They were dosed orally or i.p. with the test compound or the vehicle. Thirty min after i.p. injection or 60 min after oral dosing 38 mg/kg sodium pentobarbital were injected intravenously. The latency and duration of sleep (loss of righting reflex) were recorded. The percentage of prolongation of sleeping time was calculated as: [(sleeping time of experimental group)−(sleeping time of control group)]/(sleeping time of control group)×100%.

For COc1cc(CNc2ncnc3c2ncn3[C@@H]2O[C@H](CO)C(O)C2O)cc(OC)c1OC (stereo partly shown) [Example 37, N^6-(3,4,5-trimethxoybenzyl)-adenosine], the “Sleep prolonging rate (%)” value was 112%.

Same assay, conditions: intraperitoneal, 5 mg/kg, 38 mg/kg sodium pentobarbital 30 min later

Point of comparison: O=C(O)[C@H](Cc1c[nH]c2ccccc12)Nc1ncnc2c1ncn2[C@@H]1O[C@H](CO)C(O)C1O (stereo partly shown) [Example 112, N-(6-adenosine)-(D)-tryptophan], “Sleep prolonging rate (%)” value 89%. Against it:
- O=C(O)[C@@H]1CCCN1c1ncnc2c1ncn2[C@@H]1O[C@H](CO)C(O)C1O (stereo partly shown) [Example 118, N-(6-adenosine)-(L)-proline] — lower, 29%
- O=C(O)[C@H](Cc1ccc(O)cc1)Nc1ncnc2c1ncn2[C@@H]1O[C@H](CO)C(O)C1O (stereo partly shown) [Example 107, N-(6-adenosine)-(L)-tyrosine] — lower, 66%

Same assay, conditions: oral, 2.5 mg/kg, 38 mg/kg sodium pentobarbital 60 min later

Point of comparison: CC[C@@H](Nc1ncnc2c1ncn2[C@@H]1O[C@H](CO)[C@@H](O)[C@H]1O)c1ccccc1 [Example 75, N^6-[(R)-1-(phenyl)-propyl]-adenosine], “Sleep prolonging rate (%)” value 183%. Against it:
- CCC(Nc1ncnc2c1ncn2[C@@H]1O[C@H](CO)[C@@H](O)[C@H]1O)c1ccccc1 (mixture of isomers) [Example 72, N^6-[(±)-1-(phenyl)-propyl]-adenosine] — lower, 135%
- CCC(Nc1ncnc2c1ncn2[C@@H]1O[C@H](CO)[C@@H](O)[C@H]1O)c1ccc(OC)cc1 (mixture of isomers) [Example 74, N^6-[(±)-1-(4-methoxyphenyl)-propyl]-adenosine] — lower, 86%

Same assay, conditions: oral, 5 mg/kg, 38 mg/kg sodium pentobarbital 60 min later

Point of comparison: C[C@H](Nc1ncnc2c1ncn2[C@@H]1O[C@H](CO)[C@@H](O)[C@H]1O)c1ccc(F)cc1 [Example 71, N^6-[(S)-1-(4-fluorophenyl)-ethyl]-adenosine], “Sleep prolonging rate (%)” value 24%. Against it:
- COc1ccc([C@@H](C)Nc2ncnc3c2ncn3[C@@H]2O[C@H](CO)[C@@H](O)[C@H]2O)cc1 [Example 62, N^6-[(R)-1-(4-methoxyphenyl)-ethyl]-adenosine] — higher, 66%
- CCN(CCO)c1ncnc2c1ncn2[C@@H]1O[C@H](CO)[C@@H](O)[C@H]1O [Example 139, N^6-ethyl-N^6-(2-hydroxyethyl)-adenosine] — lower, 5%
- COc1cc(C(C)Nc2ncnc3c2ncn3[C@@H]2O[C@H](CO)[C@@H](O)[C@H]2O)ccc1O (mixture of isomers) [Example 50, N^6-[(±)-1-(3-methoxy-4-hydroxy-phenyl)-ethyl]-adenosine] — higher, 119%
- CCCOC[C@H]1O[C@@H](n2cnc3c(NCc4ccc5c(c4)OCO5)ncnc32)C(O)C1O (stereo partly shown) [Example 35, N^6-(3,4-methylenedioxybenzyl)-adenosine-5′-propyl ether] — higher, 36%
- CCOC(=O)[C@H](Cc1c[nH]c2ccccc12)Nc1ncnc2c1ncn2[C@@H]1O[C@H](CO)C(O)C1O (stereo partly shown) [Example 113, N-(6-adenosine)-(L)-tryptophan ethyl ester] — lower, 7%
- CC[C@@H](Nc1ncnc2c1ncn2C1CCCO1)c1ccccc1 (stereo partly drawn) [Example 146, N^6-[(R)-1-(phenyl)-propyl]-N^9-(tetrahydrofuran-2-yl)-adenine] — lower, 2%
- OCC(CO)Nc1ncnc2c1ncn2[C@@H]1O[C@H](CO)C(O)C1O (stereo partly shown) [Example 129, N^6-[2-(1,3-dihydroxy)-propyl]-adenosine] — higher, 184%
- CC[C@@H](Nc1ncnc2[nH]cnc12)c1ccccc1 [Example 144, N^6-[(R)-1-(phenyl)-propyl]-adenine] — higher, 42%
- C[C@@H](Nc1ncnc2[nH]cnc12)c1ccccc1 [Example 142, N^6-[(R)-1-(phenyl)-ethyl]-adenine] — lower, 21%
- CC[C@H](Nc1ncnc2c1ncn2[C@@H]1O[C@H](COC(=O)/C=C/c2ccc(C)cc2)C(O)C1O)c1ccccc1 (stereo in doubt) [Example 82, N^6-[(S)-1-(phenyl)-propyl]-adenosine-5′-p-methyl-cinnamate] — higher, 50%
- CCOC(=O)[C@@H](Cc1c[nH]c2ccccc12)Nc1ncnc2c1ncn2[C@@H]1O[C@H](CO)C(O)C1O (stereo partly shown) [Example 114, N-(6-adenosine)-(D)-tryptophan ethyl ester] — lower, 16%
- OC[C@H]1O[C@@H](n2cnc3c(NC4CCCc5c(O)cccc54)ncnc32)[C@H](O)[C@@H]1O (mixture of isomers) [Example 97, N^6-[(±)-(5-hydroxy-1,2,3,4-tetrahydro-naphthalene-1-yl)]-adenosine] — higher, 39%
- CCCCCCCC(=O)OC[C@H]1O[C@@H](n2cnc3c(NC(C)c4cc(OC)c(OC)c(OC)c4)ncnc32)[C@H](O)[C@@H]1O (mixture of isomers) [Example 53, N^6-[(±)-1-(3,4,5-trimethoxyphenyl)-ethyl]-adenosine-5′-caprylate] — higher, 130%
- N^6-[(S)-1-(phenyl)-propyl]-adenosine-5′-decanoic ether [Example 84] — lower, 4%
- C[C@H](Nc1ncnc2c1ncn2[C@@H]1O[C@H](CO)[C@@H](O)[C@H]1O)c1ccc(Cl)cc1 [Example 69, N^6-[(S)-1-(4-chlorophenyl)-ethyl]-adenosine] — higher, 33%
- CCC[C@@H](Nc1ncnc2c1ncn2[C@@H]1O[C@H](CO)C(O)C1O)c1ccccc1 (stereo partly drawn) [Example 89, N^6-[(R)-(phenyl)-butyl]-adenosine] — higher, 163%
- CCN(Cc1ccccc1)c1ncnc2c1ncn2[C@@H]1O[C@H](CO)[C@@H](O)[C@H]1O [Example 134, N^6-ethyl-N^6-benzyl-adenosine] — lower, 7%
- CCCOC[C@H]1O[C@@H](n2cnc3c(N[C@H](CC)c4ccccc4)ncnc32)C(O)C1O (stereo partly drawn) [Example 86, N^6-[(R)-1-(phenyl)-propyl]-adenosine-5′-propyl ether] — higher, 318%
- OC[C@H]1O[C@@H](n2cnc3c(NC(Cc4ccccc4)c4ccccc4)ncnc32)C(O)C1O (mixture of isomers) [Example 94, N^6-[(±)-1-(1,2-diphenyl)-ethyl]-adenosine] — higher, 36%
- COc1cc(C(C)Nc2ncnc3c2ncn3[C@H]2C[C@H](O)[C@@H](CO)O2)cc(OC)c1OC (mixture of isomers) [Example 157, N^6-[(±)-1-(3,4,5-trimethoxyphenyl)-ethyl]-2′-deoxy-adenosine] — lower, 9%
- OC[C@H]1O[C@@H](n2cnc3c(NC(c4ccccc4)C4CCCCC4)ncnc32)C(O)C1O (mixture of isomers) [Example 93, N^6-[(±)-1-(cyclohexylphenyl)-methyl]-adenosine] — lower, 17%
- C[C@H]([C@H](O)c1ccccc1)N(C)c1ncnc2c1ncn2[C@@H]1O[C@H](CO)C(O)C1O (stereo partly drawn) [Example 136, N^6-methyl-N^6-[2-(1R,2R)-(1-hydroxy-1-phenyl)-propyl]-adenosine] — higher, 44%
- CCCCCCCC(=O)OC[C@H]1O[C@@H](n2cnc3c(NCc4ccc(OC(=O)CCCCCCC)c(OC)c4)ncnc32)[C@H](O)[C@@H]1O [Example 26, N^6-(3-methoxy-4-octanoyloxybenzyl)-adenosine-5′-caprylate] — higher, 184%
- CC[C@@H](Nc1ncnc2c1ncn2[C@@H]1O[C@H](COc2ccccc2[N+](=O)[O-])C(O)[C@@H]1O)c1ccccc1 (stereo partly drawn) [Example 85, N^6-[(R)-1-(phenyl)-propyl]-adenosine-5′-o-nitrophenyl ether] — higher, 87%
- CC[C@H](Nc1ncnc2c1ncn2[C@@H]1O[C@H](COC(C)=O)C(OC(C)=O)C1OC(C)=O)c1ccccc1 (stereo partly drawn) [Example 79, N^6-[(S)-1-(phenyl)-propyl]-adenosine-2′,3′,5′-triacetate] — higher, 41%
- OC[C@H]1O[C@@H](n2cnc3c(NC(c4ccccc4)c4ccccc4)ncnc32)[C@H](O)[C@@H]1O [Example 95, N^6-(diphenylmethyl)-adenosine] — lower, 16%
- CN(c1ncnc2c1ncn2[C@@H]1O[C@H](CO)[C@@H](O)[C@H]1O)C1CCCCC1 [Example 141, N^6-methyl-N^6-cyclohexyl-adenosine] — higher, 55%
- OC[C@H]1O[C@@H](n2cnc3c(N[C@H](CO)[C@H](O)c4ccccc4)ncnc32)C(O)C1O (stereo partly drawn) [Example 42, N^6-[(1R,2R)-2-(1,3-dihydroxy-1-phenyl)-propyl]-adenosine] — lower, 4%
- Cc1ccc(CNc2ncnc3c2ncn3[C@H]2C[C@H](O)[C@@H](CO)O2)cc1 [Example 151, N^6-(p-methylbenzyl)-2′-deoxy-adenosine] — higher, 34%
- COc1cc(CNc2ncnc3c2ncn3[C@H]2C[C@@H](OC(C)=O)[C@@H](COC(C)=O)O2)ccc1O [Example 148, N^6-(3-methoxy-4-hydroxy-benzyl)-2′-deoxy-3′,5′-diacetyl adenosine] — higher, 71%
- CCCC(=O)OC[C@H]1O[C@@H](n2cnc3c(NCc4ccc(OC(=O)CCC)c(OC)c4)ncnc32)[C@@H](O)C1O (stereo partly shown) [N^6-(3-methoxy-4-butanoyloxy-benzyl)-adenosine-5′-butyrate] — lower, 11%
- CC(=O)OC[C@H]1O[C@@H](n2cnc3c(NCc4ccc(C)cc4)ncnc32)C[C@H]1OC(C)=O [Example 150, N^6-(p-methylbenzyl)-2′-deoxy-3′,5′-diacetyl adenosine] — lower, 9%

Reference: patent publication US10174033B2, “N6-substituted adenosine derivatives and N6-substituted adenine derivatives and uses thereof” (INSTITUTE OF MATERIA MEDICA, CHINESE ACADEMY OF MEDICAL …, priority 2009, dated 2019)
